Laboratory results as given in patent US20220175917A1, “COMBINATION OF IAP INHIBITOR AND IMMUNE CHECKPOINT INHIBITOR” (CHIA TAI TIANQING PHARMACEUTICAL GROUP CO., LTD., priority 2019, published 2022).

Tests used:
[1] = system: mouse triple-negative breast cancer EMT6 cell line; assay: In-vivo drug efficacy study 1: EMT6 transplanted BALB/c mouse model, tumor volume; settings: for Tumor volume Day 0: Day 0 (start of dosing)
Procedure: To evaluate the tumor immunotherapeutic effect of test drugs in the mouse triple-negative breast cancer EMT6 cell line (EMT6 is from ATCC, cell No.: CRL-2755) transplanted BALB/c mouse model.
BALB/c mice, female, 6-7 weeks old, weighing about 19.1-22.6 g, were housed in separated ventilated boxes with constant temperature and humidity. The feeding room was under the following conditions: temperature: 20-26° C., humidity: 40-70%, ventilation: 10-20 times/h, and light/dark cycle: 12 h/12 h. The Co-60 radiation-sterilized complete pellet feed for mice was supplied continuously and can be taken freely without limitation, and the drinking tap water (used after autoclaving) was supplied continuously by the water bottle and can be taken freely. A total of 144 mice purchased from Shanghai Lingchang Biotechnology Co., Ltd. were used for the study. The BALB/c mice were inoculated with EMT6 cells subcutaneously to establish murine breast cancer models with subcutaneously-transplanted tumors. The mice were administered when the mean tumor volume reached about 97.3 mm^3. The test compounds were administered orally once every 3 days at a dose of 50 mg/kg. PD1 mAb (from BioXcell, cat No.: BP0146, batch No.: 695318A1B, clone No.: RMP1-14) was administered intraperitoneally once every 3 days at a dose of 10 mg/kg. Tumor volume was measured every 3 days with a two-dimensional caliper, and the volume was measured in mm^3 and calculated according to the following formula: V=0.5 a×b^2, where a and b are the long and short diameters, respectively, of the tumor. Anti-tumor efficacy was determined by dividing the mean tumor increase volume of compound-treated animals by the mean tumor increase volume of untreated animals.

[2] = system: mouse colon cancer MC38 cell line; assay: In vivo efficacy study 2: MC38 transplanted BALB/c mouse model, tumor volume; settings: combination Example 2 50 mg/kg orally twice a week + Anti-PD1 10 mg/kg intravenously once a week, MC38, BALB/c mice
Text: To evaluate the tumor immunotherapeutic effect of test drugs in the mouse colon cancer MC38 cell line (from Obio Technology (Shanghai) Co., Ltd.) transplanted BALB/c mouse model.
BALB/c mice, female, 6-7 weeks old, weighing about 18-22 g, were kept in a special pathogen-free environment and in separated ventilated cages (3-5 mice per cage). All cages, bedding and water were disinfected prior to use. All animals had free access to standard certified commercial laboratory diets. A total of 48 mice purchased from Shanghai Slac Laboratory Animal Co., Ltd. were enrolled. Each mouse was implanted subcutaneously in the right flank with mouse colon cancer MC38 cells (2×10^5 cells in 0.1 mL of phosphate buffered saline) for tumor growth. The mice were administered when the mean tumor volume reached about 70 mm^3. Test compounds were administered orally twice a week (morning and afternoon) at a dose of 50 mg/kg; PD-1 antibody (from BioXcell, cat. No.: BP0146, batch No.: 640517M2B) was administered intravenously once a week at a dose of 10 mg/kg. Tumor volume was measured […] with a two-dimensional caliper, and the volume was measured in mm^3 and calculated according to the following formula: V=0.5 a×b^2, where a and b are the long and short diameters, respectively, of the tumor. Anti-tumor efficacy was determined by dividing the mean tumor increase volume of compound-treated animals by the mean tumor increase volume of untreated animals.

[3] = Example 2 alone, 50 mg/kg orally once every 3 days, EMT6 subcutaneous, BALB/c mice
[4] = combination Example 2 50 mg/kg orally + Anti-PD1 10 mg/kg intraperitoneally, each once every 3 days, EMT6, BALB/c mice

## CN[C@@H](C)C(=O)N[C@H](C(=O)N1CCC[C@H]1Cn1cc(C(C)=O)c2cc(Cl)ccc21)C1CCCCC1 [Example 2]
[1]; [3]
  Tumor volume Day 0: 97.3 mm^3
  Tumor volume Day 7: 355.5 mm^3
  Tumor volume Day 14: 1097.7 mm^3
  Tumor volume Day 25: 2225.8 mm^3
[1]; [4]
  Tumor volume Day 0: 97.3 mm^3
  Tumor volume Day 7: 332.4 mm^3
  Tumor volume Day 14: 174.2 mm^3
  Tumor volume Day 25: 31.5 mm^3
[2]; Day 0 (start of dosing)
  Tumor volume Day 0: 51.6 mm^3
[2]; Day 5
  Tumor volume Day 5: 140.7 mm^3
[2]; Day 12
  Tumor volume Day 12: 215.5 mm^3
[2]; Day 20
  Tumor volume Day 20: 427.1 mm^3
